Values after ≈ are worked out from the molar mass of the structure shown.
What was measured:
Format in all cases: cell-based, Staphylococcus aureus
Staph aureus 2812 = assay: MIC, microtiter broth dilution (CLSI M7-A7), Assay 1, Table 12 column E, no serum; conditions: for MIC: Staphylococcus aureus, 2812, Staph aureus 2812, Assay 1, no serum; for MIC, column E: Staph aureus 2812, Assay 1, no serum
Summary of the method: (§1)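 Compounds were prepared in DMSO at 10 mg/ml, then tested by microtiter broth dilution following CLSI M7-A7. Growth was scored visually, and the MIC taken as the lowest concentration without macroscopically visible growth. Where tested repeatedly, the geometric mean is given.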

Staph aureus 2811 = assay: MIC, microtiter broth dilution (CLSI M7-A7), Assay 1, Table 12 column D, no serum; conditions: for MIC: Staphylococcus aureus, 2811, Staph aureus 2811, Assay 1, no serum; for MIC, column D: Staph aureus 2811, Assay 1, no serum
Summary of the method: as §1

Staph aureus 1095 MRSA = assay: MIC, microtiter broth dilution (CLSI M7-A7), Assay 1, Table 12 column A, no serum; conditions: Assay 1, no serum; for MIC: Staphylococcus aureus, MRSA
Summary of the method: as §1

Staph aureus 1146 [1] = assay: MIC in Mueller-Hinton Broth with 50% pooled inactivated human serum, Assay 1, Table 12; conditions: for MIC: Staphylococcus aureus, 1146, Staph aureus 1146, Assay 1, 50% human serum, read-out: MIC, column C; for MIC, column C: Staph aureus 1146, Assay 1, 50% human serum
Summary of the method: as §1

Staph aureus 1146 [2] = assay: MIC, microtiter broth dilution (CLSI M7-A7), Assay 1, Table 12 column B, no serum; conditions: for MIC: Staphylococcus aureus, 1146, Staph aureus 1146, Assay 1, no serum; for MIC, column B: Staph aureus 1146, Assay 1, no serum
Summary of the method: as §1

| Compound | MIC (Staph aureus 2812) [µg/mL] | MIC (Staph aureus 2811) [µg/mL] | MIC (Staph aureus 1095 MRSA) [µg/mL] | MIC (Staph aureus 1146 [1]) [µg/mL] | MIC (Staph aureus 1146 [2]) [µg/mL] | MIC, column C (Staph aureus 1146 [1]) [µg/mL] | MIC, column E (Staph aureus 2812) [µg/mL] | MIC, column D (Staph aureus 2811) [µg/mL] | MIC, column A (Staph aureus 1095 MRSA) [µg/mL] | MIC, column B (Staph aureus 1146 [2]) [µg/mL] |
| --- | --- | --- | --- | --- | --- | --- | --- | --- | --- | --- |
| COc1ccc2nccc(C(O)CC[C@@H]3CCN(C4CC(c5nc(C(C)(C)C)no5)C4)C[C@@H]3C(=O)O)c2c1 (stereo partly drawn) [Example 164, (3R,4R)-1-[3-(3-tert-butyl-1,2,4-oxadiazol-5-yl)cyclobutyl]-4-[3-hydroxy-3-(6-methoxyquinolin-4-yl)propyl]piperidine-3-carboxylic acid] | 64 (≈ 122 µM) | 64 (≈ 122 µM) | > 64 | > 64 | 64 (≈ 122 µM) | – | – | – | – | – |
| COc1ccc2nccc(C(O)CC[C@@H]3CCN(C4CC(c5nc(C6CC6)no5)C4)C[C@@H]3C(=O)O)c2c1 (stereo partly drawn) [Example 165, (3R,4R)-1-[3-(3-cyclopropyl-1,2,4-oxadiazol-5-yl)cyclobutyl]-4-[3-hydroxy-3-(6-methoxyquinolin-4-yl)propyl]piperidine-3-carboxylic acid] | 64 (≈ 126 µM) | 32 (≈ 63.2 µM) | > 64 | > 64 | 32 (≈ 63.2 µM) | – | – | – | – | – |
| COc1ccc2nccc(C(O)CC[C@@H]3CCN(C4CC(c5nc(C(C)C)no5)C4)C[C@@H]3C(=O)O)c2c1 (stereo partly drawn) [Example 166, (3R,4R)-4-[3-hydroxy-3-(6-methoxyquinolin-4-yl)propyl]-1-[3-(3-isopropyl-1,2,4-oxadiazol-5-yl)cyclobutyl]piperidine-3-carboxylic acid] | > 64 | > 64 | > 64 | > 64 | > 64 | – | – | – | – | – |
| CCCc1noc(C2CC(N3CC[C@@H](CCC(O)c4ccnc5ccc(OC)cc45)[C@@H](C(=O)O)C3)C2)n1 (stereo partly drawn) [Example 167, (3R,4R)-4-[3-hydroxy-3-(6-methoxyquinolin-4-yl)propyl]-1-[3-(3-propyl-1,2,4-oxadiazol-5-yl)cyclobutyl]piperidine-3-carboxylic acid] | > 64 | > 64 | > 64 | > 64 | > 64 | – | – | – | – | – |
| CCOCCc1noc(C2CC(N3CC[C@@H](CCC(O)c4ccnc5ccc(OC)cc45)[C@@H](C(=O)O)C3)C2)n1 (stereo partly drawn) [Example 168, (3R,4R)-1-{3-[3-(2-ethoxyethyl)-1,2,4-oxadiazol-5-yl]cyclobutyl}-4-[3-hydroxy-3-(6-methoxyquinolin-4-yl)propyl]piperidine-3-carboxylic acid] | > 64 | > 64 | > 64 | > 64 | > 64 | – | – | – | – | – |
| COCc1noc(C2CC(N3CC[C@@H](CCC(O)c4ccnc5ccc(OC)cc45)[C@@H](C(=O)O)C3)C2)n1 (stereo partly drawn) [Example 169, (3R,4R)-4-[3-hydroxy-3-(6-methoxyquinolin-4-yl)propyl]-1-{3-[3-(methoxymethyl)-1,2,4-oxadiazol-5-yl]cyclobutyl}piperidine-3-carboxylic acid] | > 64 | > 64 | > 64 | > 64 | > 64 | – | – | – | – | – |
| COc1ccc2nccc(C(O)CC[C@@H]3CCN(C4CC(c5nc(CC6CC6)no5)C4)C[C@@H]3C(=O)O)c2c1 (stereo partly drawn) [Example 170, (3R,4R)-1-{3-[3-(cyclopropylmethyl)-1,2,4-oxadiazol-5-yl]cyclobutyl}-4-[3-hydroxy-3-(6-methoxyquinolin-4-yl)propyl]piperidine-3-carboxylic acid] | > 64 | > 64 | > 64 | > 64 | > 64 | – | – | – | – | – |
| COc1ccc2nccc(C(O)CC[C@@H]3CCN(C4CC(c5cc(C)on5)C4)C[C@@H]3C(=O)O)c2c1 (stereo partly drawn) [Example 171, (3R,4R)-4-[3-Hydroxy-3-(6-methoxy-quinolin-4-yl)-propyl}-1-[3-(5-methyl-isoxazol-3-yl)-cyclobutyl]-piperidine-3-carboxylic acid] | 8 (≈ 16.7 µM) | 8 (≈ 16.7 µM) | 16 (≈ 33.4 µM) | 16 (≈ 33.4 µM) | 8 (≈ 16.7 µM) | – | – | – | – | – |

Results, then the molecule that gave them:

| MIC (Staph aureus 2812) [µg/mL] | MIC (Staph aureus 2811) [µg/mL] | MIC (Staph aureus 1095 MRSA) [µg/mL] | MIC (Staph aureus 1146 [1]) [µg/mL] | MIC (Staph aureus 1146 [2]) [µg/mL] | MIC, column C (Staph aureus 1146 [1]) [µg/mL] | MIC, column E (Staph aureus 2812) [µg/mL] | MIC, column D (Staph aureus 2811) [µg/mL] | MIC, column A (Staph aureus 1095 MRSA) [µg/mL] | MIC, column B (Staph aureus 1146 [2]) [µg/mL] | Compound |
| --- | --- | --- | --- | --- | --- | --- | --- | --- | --- | --- |
| 2 (≈ 3.83 µM) | 1 (≈ 1.91 µM) | 4 (≈ 7.65 µM) | 32 (≈ 61.2 µM) | 2 (≈ 3.83 µM) | – | – | – | – | – | COc1ccc(F)c(C2CC(N3CC[C@@H](CC[C@H](O)c4ccnc5ccc(OC)cc45)[C@@H](C(=O)O)C3)C2)c1 (stereo partly drawn) [Example 172, (3R,4R)-1-[3-(2-fluoro-5-methoxyphenyl)cyclobutyl]-4-[(3S)-3-hydroxy-3-(6-methoxyquinolin-4-yl)propyl]piperidine-3-carboxylic acid] |
| < 0.0625 | < 0.0625 | < 0.0625 | 8 (≈ 17.3 µM) | < 0.0625 | – | – | – | – | – | COc1ccc2ncc(F)c(CCCC3(C(=O)O)CCN(C4CC(c5ccccc5)C4)C3)c2c1 (centres unmarked) [Example 173, 3-[3-(3-fluoro-6-methoxyquinolin-4-yl)propyl]-1-(3-phenylcyclobutyl)pyrrolidine-3-carboxylic acid] |
| < 0.0625 | < 0.0625 | < 0.0625 | – | < 0.0625 | 4.00 (≈ 8.02 µM) | – | – | – | – | COc1ccc2ncc(F)c(CCCC3(C(=O)O)CCN(C4CC(c5c(F)cccc5F)C4)C3)c2c1 (centres unmarked) [Example 174, 1-[3-(2,6-difluorophenyl)cyclobutyl]-3-[3-(3-fluoro-6-methoxyquinolin-4-yl)propyl]pyrrolidine-3-carboxylic acid] |
| < 0.0625 | < 0.0625 | 0.5 (≈ 1.01 µM) | 4 (≈ 8.08 µM) | < 0.0625 | – | – | – | – | – | COc1ccc2ncc(Cl)c(C(O)CCC3(C(=O)O)CCN(C4CC(c5ccccc5)C4)C3)c2c1 (centres unmarked) [Example 175, 3-[3-(3-chloro-6-methoxyquinolin-4-yl)-3-hydroxypropyl]-1-(3-phenylcyclobutyl)pyrrolidine-3-carboxylic acid] |
| < 0.0625 | < 0.0625 | 0.125 (≈ 0.235 µM) | 4 (≈ 7.53 µM) | < 0.0625 | – | – | – | – | – | COc1ccc2ncc(Cl)c(C(O)CCC3(C(=O)O)CCN(C4CC(c5c(F)cccc5F)C4)C3)c2c1 (centres unmarked) [Example 176, 3-[3-(3-chloro-6-methoxyquinolin-4-yl)-3-hydroxypropyl]-1-[3-(2,6-difluorophenyl)cyclobutyl] pyrrolidine-3-carboxylic acid] |
| – | – | – | – | – | 32.0 (≈ 65.5 µM) | 4.00 (≈ 8.19 µM) | 2.00 (≈ 4.09 µM) | 8.00 (≈ 16.4 µM) | 2.00 (≈ 4.09 µM) | COc1ccc2nccc(C(O)CC[C@@H]3CCN(CC4CC(c5ccccc5)C4)C[C@@H]3C(=O)O)c2c1 (stereo partly drawn) [Example 178, (3R,4R)-4-[3-hydroxy-3-(6-methoxyquinolin-4-yl)propyl]-1-[(3-phenylcyclobutyl)methyl]piperidine-3-carboxylic acid] |
| 1 (≈ 1.91 µM) | 1 (≈ 1.91 µM) | 2 (≈ 3.81 µM) | 32 (≈ 61 µM) | 1 (≈ 1.91 µM) | – | – | – | – | – | COc1ccc2nc(C)cc(C(O)CC[C@@H]3CCN(C4CC(c5c(F)cccc5F)C4)C[C@@H]3C(=O)O)c2c1 (stereo partly drawn) [Example 179, (3R,4R)-1-[3-(2,6-difluorophenyl)cyclobutyl]-4-[3-hydroxy-3-(6-methoxy-2-methylquinolin-4-yl)propyl] piperidine-3-carboxylic acid] |
| – | – | – | – | – | 16.0 (≈ 32.1 µM) | <0.0625 | <0.0625 | <0.0625 | <0.0625 | COc1ccc2ncc(F)c(CCCC3(C(=O)O)CCN(C4CC(c5c(F)cccc5F)C4)C3)c2c1 (centres unmarked) [Example 180, 1-[3-(2,6-difluorophenyl)cyclobutyl]-3-[3-(3-fluoro-6-methoxyquinolin-4-yl)propyl]pyrrolidine-3-carboxylic acid] |

From patent US20080280879A1, “SUBSTITUTED HETEROCYCLIC DERIVATIVES AND THEIR PHARMACEUTICAL USE AND COMPOSITIONS” (priority 2007, published 2008)
